Data: PMC11840788, “3,3′-Diindolylmethane (DIM): A Molecular Scaffold for Inhibition of WWP1 and WWP2, Members of the NEDD4 Family HECT E3 Ligases” (ACS Omega, 2025)
Values joined by “and” are separate entries in the source; they are usually repeats but may differ in a detail not shown here. Equal entries are not always repeated.

What was measured:
[1] = target: T1, WWP2 (GST-tagged WWP2-FL) (Homo sapiens, UniProt O00308); assay: in vitro autoubiquitination assay (single shot and dose dependency), WWP2; format: biochemical; conditions: for inhibition of WWP2 (in words): autoubiquitination assay; for WWP2 RA (%) relative activity: single shot, compound at 1 mM (1% DMSO), standardized to 0 and 100% controls; for IC50: nonlinear regression of RA against log concentration, 1 mM to 10 nM, 1% DMSO
T1 construct: Full- length WWP2 (WWP2-FL); made in house; host or cells: E. coli BL21-CodonPlus RP (plasmid pGEX2T-WWP2-FL, Dr Andrew Chantry's Lab)
T1 sequence (O00308 whole entry): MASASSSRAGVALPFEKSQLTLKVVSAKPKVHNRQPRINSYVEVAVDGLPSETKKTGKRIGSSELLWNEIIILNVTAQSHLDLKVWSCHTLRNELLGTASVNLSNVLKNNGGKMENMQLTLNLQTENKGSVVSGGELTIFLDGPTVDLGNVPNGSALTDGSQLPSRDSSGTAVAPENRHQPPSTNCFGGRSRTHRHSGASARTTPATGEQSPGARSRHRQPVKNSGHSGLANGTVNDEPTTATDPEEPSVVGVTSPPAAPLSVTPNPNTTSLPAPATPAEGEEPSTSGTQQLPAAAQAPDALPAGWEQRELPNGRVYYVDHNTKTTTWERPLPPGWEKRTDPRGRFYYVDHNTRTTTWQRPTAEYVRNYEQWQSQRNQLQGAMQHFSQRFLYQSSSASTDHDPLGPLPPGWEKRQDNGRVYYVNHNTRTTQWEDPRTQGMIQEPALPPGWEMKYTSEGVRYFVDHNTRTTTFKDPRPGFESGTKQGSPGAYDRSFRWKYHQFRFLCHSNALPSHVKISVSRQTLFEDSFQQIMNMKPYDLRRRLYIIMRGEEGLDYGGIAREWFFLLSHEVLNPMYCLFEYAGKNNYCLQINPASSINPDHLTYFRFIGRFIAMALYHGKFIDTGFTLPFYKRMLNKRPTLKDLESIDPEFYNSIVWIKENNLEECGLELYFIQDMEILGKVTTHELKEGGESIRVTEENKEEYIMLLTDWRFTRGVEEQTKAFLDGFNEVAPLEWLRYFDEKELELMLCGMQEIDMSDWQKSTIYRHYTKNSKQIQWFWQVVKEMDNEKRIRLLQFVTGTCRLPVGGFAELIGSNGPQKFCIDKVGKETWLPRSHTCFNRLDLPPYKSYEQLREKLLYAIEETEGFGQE
Description: (§1) A single shot in vitro autoubiquitination assay was performed for I3C, DIM and each of the derivatives against WWP1 and WWP2 using a compound concentration of 1 mM (1% DMSO) (SI Figure S3). […] These active compounds were then subjected to a detailed dose dependency analysis leading to IC50 values. This strategy has previously been employed to screen other WWP1/WWP2 small molecule inhibitors as well as used to assess I3C inhibition toward NEDD4-1.[29],[32] In this way, compounds displaying a relative activity (RA) of less than 50% in the single shot assay were further screened for dose-dependency using a logarithmic concentration range from 10 nM to 1 mM (1% DMSO) (SI Figure S4). […] These were confirmed by counter assays to remove compounds possibly interacting with other enzymes in the assay or interfering with the assay directly (SI Table S1).
(§2) Cell lysate containing His-tagged WWP1-L34H or GST-tagged WWP2-FL proteins were incubated on either 96-well Clear Pierce glutathione or nickel-coated plates for 1 h. Reaction mixtures of either 3 ng/well GST-Uba1 and 15 ng/well UbcH7 or 10 ng/well His-Uba1 and 150 ng/well His-UbcH7 were incubated together in 25 mM Tris pH 8.0, 100 mM NaCl, 4 mM MgCl2 containing 60 ng/well FLAG-ubiquitin and 1.25 mM ATP for 40 min. A prior 1% BSA plate blocking step is required for nickel-coated plates. After plate washing, 2 μL of the compound was added at the desired concentration (1% DMSO) followed by 18 μL of the reaction mixture. This was then incubated for 2 h with 0 and 100% controls before 100 μL of anti-FLAG M2-Peroxidase HRP (1:10,000 PBST) was added to each well and incubated for 1 h. Finally, 100 μL of 1 × TMB substrate solution (Invitrogen) was added to each well and incubated for up to 10 min until sufficient blue color change was observed. To stop the reaction, 100 μL of 1 M HCl was added. For the counter assay, 3 ng/well GST-Uba1 and 200 ng/well UbcH7 were incubated with the other reaction mixture components for 1 h before incubating onto plates for a further 1 h. All other steps were followed. The plates were washed three times with PBST (and 15 mM Imidazole) between each step. Quantification was measured by absorbance read at 450 nm. All assay optimizations were as previously reported.[32] IC50 nonlinear regression curves were calculated in GraphPad v10.2 (Prism). […]
(§3) Auto-ubiquitination Assay
(§4) Cell lysate containing His-tagged WWP1-L34H or GST-tagged WWP2-FL proteins were incubated on either 96-well Clear Pierce glutathione 2 or nickel-coated plates for 1 hour. Reaction mixtures of either 3 ng/well GST-Uba1 and 15 ng/well UbcH7 or 10 ng/well His-Uba1 and 150 ng/well His-UbcH7 were incubated together in 25 mM Tris pH 8.0, 100 mM NaCl, 4 mM MgCl2 containing 60 ng/well FLAG-ubiquitin and 1.25 mM ATP for 40 minutes. A prior 1 % BSA plate blocking step is required for nickel-coated plates. After plate washing, 2 μL of the compound was added at the desired concentration (1 % DMSO) followed by 18 μL of the reaction mixture. This was then incubated for 2 hours with 0% and 100% controls before 100 μL of anti-FLAG M2-Peroxidase HRP (1: 10,000 PBST) was added to each well and incubated for 1 hour.
(§5) Finally, 100 μL of 1 × TMB substrate solution (Invitrogen) was added to each well and […]
(§6) incubated for up to 10 minutes until sufficient blue colour change was observed. To stop the reaction, 100 μL of 1 M HCl was added. For the counter assay, 3 ng/well GST-Uba1 and 200 ng/well UbcH7 were incubated with the other reaction mixture components for 1 hour before incubating onto plates for a further 1 hour. All other steps were followed.
(§7) The plates were washed three times with PBST (and 15 mM Imidazole) between each step. Quantification was measured by absorbance read at 450 nm. All assay optimisations have been previously reported by Watt and colleagues3.
(§8) Relative activity (RA) was determined by comparing the autoubiquitination of the WWP ligases in the presence of each compound, i.e TMB absorbance (450 nm), to the […]

[2] = target: T2, WWP1 (His-tagged WWP1-L34H) (Homo sapiens, UniProt Q9H0M0); assay: in vitro autoubiquitination assay (single shot and dose dependency), WWP1; format: biochemical; conditions: for inhibition of WWP1 (in words): autoubiquitination assay; for WWP1 RA (%) relative activity: single shot, compound at 1 mM (1% DMSO), standardized to 0 and 100% controls; for IC50: nonlinear regression of RA against log concentration, 1 mM to 10 nM, 1% DMSO
T2 construct: WWP1- 2,3-linker-WW3-WW4-HECT (WWP1-L34H); made in house; host or cells: E. coli BL21-CodonPlus RP (plasmid pET32a-WWP1-L34H, gift of Dr Wenyu Wen)
T2 sequence (Q9H0M0 415-922, stated change not applied): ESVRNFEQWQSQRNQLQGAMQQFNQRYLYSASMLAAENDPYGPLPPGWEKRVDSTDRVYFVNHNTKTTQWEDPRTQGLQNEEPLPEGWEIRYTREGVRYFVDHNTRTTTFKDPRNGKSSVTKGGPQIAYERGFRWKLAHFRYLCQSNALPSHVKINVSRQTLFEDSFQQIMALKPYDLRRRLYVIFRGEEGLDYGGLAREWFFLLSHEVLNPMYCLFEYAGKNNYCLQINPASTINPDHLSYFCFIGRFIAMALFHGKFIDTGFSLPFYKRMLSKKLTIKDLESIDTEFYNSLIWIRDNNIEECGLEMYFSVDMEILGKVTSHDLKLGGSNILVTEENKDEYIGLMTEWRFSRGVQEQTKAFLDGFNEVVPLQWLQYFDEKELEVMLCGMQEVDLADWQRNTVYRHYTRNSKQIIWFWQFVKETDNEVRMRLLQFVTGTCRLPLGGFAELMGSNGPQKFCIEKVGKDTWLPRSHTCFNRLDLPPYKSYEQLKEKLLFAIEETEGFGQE
Description: as §1, §2, §3, §4, §5, §6, §7, §8

[3] = tested on: NEDD4-1; design: method as in PMID 27979631; conditions: cited from earlier work
[4] = target: T3, UbcH7 (Homo sapiens, UniProt P68036); assay: counter auto-ubiquitination screen; format: biochemical; conditions: counter assay, GST-Uba1 and UbcH7 without E3
T3 construct: GST (N, cleaved yes); made in house; host or cells: E. coli BL21 (DE3) (pGEX4T-1-UbcH7a and pGEX4T-1-hUba1, gifts of Dr Arthur L Haas's Lab)
T3 sequence (P68036 whole entry): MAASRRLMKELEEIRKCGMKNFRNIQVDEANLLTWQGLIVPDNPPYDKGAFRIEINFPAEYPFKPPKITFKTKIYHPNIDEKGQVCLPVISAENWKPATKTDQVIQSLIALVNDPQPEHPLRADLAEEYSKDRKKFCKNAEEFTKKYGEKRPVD
Description: as §1
Cell lysate containing His-tagged WWP1-L34H or GST-tagged WWP2-FL proteins were incubated on either 96-well Clear Pierce glutathione or nickel-coated plates for 1 h. Reaction mixtures of either 3 ng/well GST-Uba1 and 15 ng/well UbcH7 or 10 ng/well His-Uba1 and 150 ng/well His-UbcH7 were incubated together in 25 mM Tris pH 8.0, 100 mM NaCl, 4 mM MgCl2 containing 60 ng/well FLAG-ubiquitin and 1.25 mM ATP for 40 min. A prior 1% BSA plate blocking step is required for nickel-coated plates. […] Quantification was measured by absorbance read at 450 nm. […] IC50 nonlinear regression curves were calculated in GraphPad v10.2 (Prism). […]
The plates were washed three times with PBST (and 15 mM Imidazole) between each step. Quantification was measured by absorbance read at 450 nm. […]
Relative activity (RA) was determined by comparing the autoubiquitination of the WWP ligases in the presence of each compound, i.e TMB absorbance (450 nm), to the 100 % controls (1 % DMSO only), further normalising against background absorbance using 0 % controls (no E3 loaded). […]
IC50 non-linear regression curves were calculated in GraphPad v10.2 (Prism). […]

[5] = target: WWP1 (Homo sapiens, UniProt Q9H0M0); design: method as in PMID 31097636, doi:10.1016/j.phytol.2023.01.002; conditions: cited from earlier work
WWP1, sequence (Q9H0M0 546-922 limits assumed): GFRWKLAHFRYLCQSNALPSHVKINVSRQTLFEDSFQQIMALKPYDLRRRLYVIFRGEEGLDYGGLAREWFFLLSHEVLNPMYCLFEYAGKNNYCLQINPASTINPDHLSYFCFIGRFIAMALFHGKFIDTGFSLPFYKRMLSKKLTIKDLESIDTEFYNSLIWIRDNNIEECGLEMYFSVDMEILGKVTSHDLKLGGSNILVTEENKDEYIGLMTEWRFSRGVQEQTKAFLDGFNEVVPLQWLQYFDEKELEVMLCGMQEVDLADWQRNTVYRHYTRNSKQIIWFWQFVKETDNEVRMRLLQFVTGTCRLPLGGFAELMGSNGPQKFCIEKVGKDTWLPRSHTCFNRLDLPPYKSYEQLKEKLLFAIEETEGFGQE

[6] = design: method as in PMID 17699787; conditions: cited from earlier work

inhibition of WWP2 (in words) [1] | WWP2 RA (%) relative activity [1] | inhibition of WWP1 (in words) [2] | WWP1 RA (%) relative activity [2] | IC50 [1] | IC50 [2] | UbcH7 Activity (%) [4] | SMILES | IC50 [3] | IC50 [5] | increase in antiproliferative properties relative to I3C [6]
no evidence of inhibition | 97.6% | no evidence of inhibition | 105.9% | – | – | – | OCc1cn(Cc2ccccc2)c2ccccc12 [Compound 13, N-benzylindole-3-carbinol] | 12.3 µM | – | –
displayed inhibition | 39.2% | displayed inhibition | 11.4% | 224 µM | 218 µM | 86.3 ± 1.8% | Cc1ccc(S(=O)(=O)n2cc(CO)c3ccccc32)cc1 [Compound 15, N-(4-methylbenzenesulfonyl)indole-3-carbinol] | – | – | –
displayed inhibition | 30.0% | displayed inhibition | 22.5% | 642 µM | 799 µM | 79.7 ± 1.5% | O=S(=O)(c1ccc(C(F)(F)F)cc1)n1cc(CO)c2ccccc21 [Compound 16, N-(4-trifluoromethylbenzenesulfonyl)indole-3-carbinol] | – | – | –
– | 62.2 ± 6.1% and 62.2% | displayed inhibition | 17.2% | – | 111 µM | 83.3 ± 2.0% | c1ccc2c(Cc3c[nH]c4ccccc34)c[nH]c2c1 [DIM, 3,3′-diindolylmethane] | – | – | –
– | – | – | – | – | – | – | CCc1ccc(C=CC(=O)Nc2ccc(C(C)=O)cc2)o1 [Heclin] | – | 6.9 µM | –
– | – | – | – | – | – | – | O=[N+]([O-])c1cc(S(=O)(=O)n2cc(CO)c3ccccc32)ccc1Cl [OSU-A9] | – | – | 100 fold
